Experimental data reported in US9890176B2, “Mannose derivatives for treating bacterial infections” (Vertex Pharmaceuticals Incorporated, priority 2013, dated 2018).

Tested on: bacterial strain LF82 binding to the glycoprotein BSA-(Mannose)3
Assay: Bacterial Binding Assay (BBA)
Type: cell-based, Escherichia coli
Conditions: read-out: Bacterial Binding Assay IC50
Description: The purpose of the Bacterial Binding Assay (BBA) is to determine the inhibition activity of selective FimH antagonists on the bacterial strain LF82 binding to the glycoprotein BSA-(Mannose)3.
Below is a list of the Materials used to run the BBA are described below. • 1. LB broth: Supplier: Gibco, #10855 • 2. D-PBS: Supplier: Wisent, #311-425-CL • 3. LB agar plates • 4. 96-well black plate (high binding): Supplier: Costar, #3925 • 5. TopSeal™-A adhesive sealing films; Supplier PerkinElmer, #6005185 • 6. Carbonate-bicarbonate buffer pH 9.6 tablets, Supplier: Medicago, #09-8922-24 • 7. Water, Supplier: Gibco, #15230-162 • 8. Bovine serum albumin (BSA): Supplier: Sigma, #A-7888 • 9. (Man)-3-BSA (α1-3, α1-6 Mannotriose-BSA, 1 mg), V-Labs, #NGP1336, lot#HGDX37-169-1 • 10. Tween 20: Supplier: Sigma, #P9416 • 11. Bright-Glo Luciferase Assay System: Supplier: Promega, #E2610 • 12. LF82/Luciferase strain: Invasive ability of an Escherichia coli strain isolated from the ileal mucosa of a patient with Crohn's disease. Boudeau J, Glasser A L, Masseret E, Joly B, Darfeuille-Michaud A, Infect Immun. 1999, 67(9), 4499-509
Solutions and buffers used to run the BBA are described below. • 1. 0.04M carbonate-bicarbonate buffer (coating buffer) • 2. […] 1 mg of (Man)-3-BSA in 25 mL of water. • 3. 4000 ng/mL BSA • 4. 40 ng/mL BSA • 5. 1 μg/mL BSA-(Man)3: 150 μL of 40 ng/mL BSA-(Man)3+5.85 mL of 40 ng/mL BSA • 6. 0.5 μg/mL BSA-(Man)3 in 0.02M carbonate-bicarbonate buffer. • 7. 20 ng/mL BSA in 0.02M carbonate-bicarbonate buffer • 8. Blocking buffer (2% BSA/DPBS): 1 g of BSA in 50 mL D-PBS • 9. 2× binding buffer (0.2% BSA/D-PBS): 5 mL of blocking buffer+45 mL D-PBS. • 10. Washing buffer (D-PBS/0.01% Tween 20): 10 μL of Tween 20 in 100 mL D-PBS. • 11. 1× Bright-Glo Luciferase substrate:Dilute 1:1 the Bright-Glo Luciferase Assay System with D-PBS The experimental protocol to run the BBA is described below.
Overnight culture of LF82/Luciferase strain: Into two Falcon 50 mL tubes, add 20 mL of LB+20 μL of 50 mg/mL Kanamycin and inoculate with a loop from glycerol stock of the LF82/Luciferase strain. Incubate overnight at 37° C. with no shaking.
Glycoprotein coating of 96-well plates: Add 100 μL/well of 0.5-2 μg/mL BSA-(Man)3. 20 μg/mL BSA is used as the control background. Seal plate using an adhesive sealing film and incubate overnight at room temperature. Wash the 96-well plate three times with 150 μL/well of D-PBS, add 170 μL/well of blocking solution and incubate 45 min (minimum) at room temperature.
Preparation of bacterial suspension: Mix the two cultures tubes (40 mL) and perform a 1:10 dilution in LB (900 μl LB+100 μl culture. Measure optical density (OD) of the bacterial cultures. OD1 ˜5×10^8 cells/mL. Centrifuge LF82 culture for 20 min at 3500 rpm at room temperature. Re-suspend bacterial pellet in D-PBS and centrifuge again for 20 min at 3500 rpm. Re-suspend bacterial pellet in D-PBS to obtain a bacterial concentration of 2×10^9 bacteria/mL. Dilute 1/10 in D-PBS to obtain a final bacterial concentration of 2×10^8 bacteria/mL (=107 bacteria/50 μL). Perform 1/10 serial dilutions in LB of each bacterial suspension, plate 10 μL of dilutions on LB agar plates (final dilutions of 10^−7) and incubate overnight at 37° C. and count CFUs to determine the actual bacteria density in the assay.
Bacterial binding assay: Add 147 μL 2× binding buffer to compound plate (containing 3 μL of compound). After blocking step is performed (at least 45 min), wash plates three times with 200 μL/well of D-PBS. With a 100 μL multichannel manual pipettor, add 50 μL/well of compound diluted in 2× binding buffer. With a 100 μL multichannel manual pipettor, add 50 μL/well of bacterial suspension. Agitate at slow speed for 1 min and incubate 40-75 min at room temperature. Wash 5 times with 150 μL/well of washing buffer and then once with D-PBS. Add 100 μL/well of 1× Bright-Glo Luciferase substrate. […]

Compound	IC50 [nM]
COc1cc(Cl)c(Cl)cc1-c1ccc(O[C@H]2O[C@H](CO)[C@@H](O)[C@H](O)[C@]2(C)O)c(C)c1 [Compound 100]	155 ± 25
Cc1cc(-c2cccc(C(=O)N[C@@H](CO)[C@@H](C)O)c2)ccc1O[C@H]1O[C@H](CO)[C@@H](O)[C@H](O)[C@]1(C)O [Compound 72]	36 ± 9
Cc1cc(-c2ccc(-c3ccc(O[C@H]4O[C@H](CO)[C@@H](O)[C@H](O)[C@]4(C)O)c(C)c3)cc2)ccc1O[C@H]1O[C@H](CO)[C@@H](O)[C@H](O)[C@]1(C)O [Example 116, (2R,3S,4S,5S,6R)-6-(hydroxymethyl)-3-methyl-2-[2-methyl-4-[4-[3-methyl-4-[(2R,3S,4S,5S,6R)-3,4,5-trihydroxy-6-(hydroxymethyl)-3-methyl-tetrahydropyran-2-yl]oxy-phenyl]phenyl]phenoxy]tetrahydropyran-3,4,5-triol]	30 ± 13
CNC(=O)c1cccc(-c2ccc(O[C@H]3O[C@H](CO)[C@@H](O)[C@H](O)[C@@]3(O)Cn3cc(CO)nn3)c(C)c2)c1 [Compound 51]	7150 ± 50
C[C@@]1(O)[C@@H](Oc2ccc(-c3ccc(O[C@H]4O[C@H](CO)[C@@H](O)[C@H](O)[C@]4(C)O)cc3)cc2)O[C@H](CO)[C@@H](O)[C@@H]1O [Example 106, (2R,3S,4S,5S,6R)-6-(hydroxymethyl)-3-methyl-2-[4-[4-[(2R,3S,4S,5S,6R)-3,4,5-trihydroxy-6-(hydroxymethyl)-3-methyl-tetrahydropyran-2-yl]oxyphenyl]phenoxy]tetrahydropyran-3,4,5-triol]	435 ± 115
Cc1cc(-c2cccc(-c3ccc(O[C@H]4O[C@H](CO)[C@@H](O)[C@H](O)[C@]4(C)O)c(C)c3)c2)ccc1O[C@H]1O[C@H](CO)[C@@H](O)[C@H](O)[C@]1(C)O [Example 120, (2R,3S,4S,5S,6R)-6-(hydroxymethyl)-3-methyl-2-[2-methyl-4-[3-[3-methyl-4-[(2R,3S,4S,5S,6R)-3,4,5-trihydroxy-6-(hydroxymethyl)-3-methyl-tetrahydropyran-2-yl]oxy-phenyl]phenyl]phenoxy]tetrahydro-pyran-3,4,5-triol]	3 ± 2
COc1ccc(Cl)cc1-c1ccc(O[C@H]2O[C@H](CO)[C@@H](O)[C@H](O)[C@]2(C)O)c(C)c1 [Compound 97]	110 ± 20
COc1ccc(-c2ccc(O[C@H]3O[C@H](CO)[C@@H](O)[C@H](O)[C@]3(C)O)c(C)c2)cc1Cl [Compound 96]	20 ± 9
C[C@H](O)[C@H]1O[C@H](Oc2ccc(N3CCc4cc([N+](=O)[O-])ccc43)cc2Cl)[C@@H](O)[C@@H](O)[C@@H]1O [compound 28]	1300
CNC(=O)c1cccc(-c2ccc(O[C@H]3O[C@](C)(CO)[C@@H](O)[C@H](O)[C@@H]3O)c(C)c2)c1 [compound 26]	2370 ± 544
Cc1cc(-c2ccc(Cl)c(Cl)c2)ccc1O[C@H]1O[C@H](CO)[C@@H](O)[C@H](O)[C@]1(C)O [Compound 82]	110 ± 31
COc1ccc(C#N)cc1-c1ccc(O[C@H]2O[C@H](CO)[C@@H](O)[C@H](O)[C@]2(C)O)c(C)c1 [Compound 79]	20 ± 5
CNC(=O)c1cccc(-c2ccc(O[C@H]3O[C@H](CO)[C@@H](O)[C@H](O)[C@]3(C)O)cc2C)c1 [Compound 42]	375 ± 255
Cc1cc(-c2cccc(-c3ccc(O[C@H]4O[C@H](CO)[C@@H](O)[C@H](O)[C@]4(C)O)c(C)c3)n2)ccc1O[C@H]1O[C@H](CO)[C@@H](O)[C@H](O)[C@]1(C)O [Example 121, (2R,3S,4S,5S,6R)-6-(hydroxymethyl)-3-methyl-2-[2-methyl-4-[6-[3-methyl-4-[(2R,3S,4S,5S,6R)-3,4,5-trihydroxy-6-(hydroxymethyl)-3-methyl-tetrahydropyran-2-yl]oxy-phenyl]-2-pyridyl]phenoxy]tetrahydropyran-3,4,5-triol]	6 ± 0.8
OC[C@H]1O[C@@]2(CCc3cc(-c4ccc5c(c4)CC[C@]4(O5)O[C@H](CO)[C@@H](O)[C@H](O)[C@@H]4O)ccc3O2)[C@@H](O)[C@@H](O)[C@@H]1O [Example 126, (2R,3′S,4′S,5′S,6′R)-6′-(hydroxymethyl)-6-[(2R,3′S,4′S,5′S,6′R)-3′,4′,5′-trihydroxy-6′-(hydroxymethyl)spiro[chromane-2,2′-tetrahydropyran]-6-yl]spiro[chromane-2,2′-tetrahydropyran]-3′,4′,5′-triol]	8
O=[N+]([O-])c1cccc(-c2ccc3c(c2)CC[C@]2(O3)O[C@H](CO)[C@@H](O)[C@H](O)[C@@H]2O)c1 [Compound 34]	79 ± 31
Cc1cc(-c2ccc(F)cc2)ccc1O[C@H]1O[C@H](CO)[C@@H](O)[C@H](O)[C@]1(C)O [Compound 74]	180 ± 40
CNC(=O)c1cccc(-c2ccc(O[C@H]3O[C@H](CO)[C@@H](O)[C@H](O)[C@]3(C)O)c(Cl)c2)c1 [Example 15, 3-[3-chloro-4-[(2R,3S,4S,5S,6R)-3,4,5-trihydroxy-6-(hydroxymethyl)-3-methyl-tetrahydropyran-2-yl]oxy-phenyl]-N-methyl-benzamide]	13 ± 2
C[C@@]1(O)[C@@H](OCc2ccccc2)O[C@H](CO)[C@@H](O)[C@@H]1O [Compound 37]	> 10000
Cc1cc(-c2cccc(C(=O)NCCN3CCN(C)CC3)c2)ccc1O[C@H]1O[C@H](CO)[C@@H](O)[C@H](O)[C@]1(C)O [Compound 58]	13 ± 1
Cc1cc(-c2cccc(C(=O)NCCOCCOCCN)c2)ccc1O[C@H]1O[C@H](CO)[C@@H](O)[C@H](O)[C@]1(C)O [Compound 22]	15 ± 4
CNC(=O)c1cccc(-c2ccc(O[C@H]3O[C@H](CO)[C@@H](O)[C@H](O)[C@@]3(O)CN)c(C)c2)c1 [Compound 48]	605 ± 215
COc1cc(OC)cc(-c2ccc(O[C@H]3O[C@H](CO)[C@@H](O)[C@H](O)[C@]3(C)O)c(C)c2)c1 [Compound 94]	16 ± 6
Cc1cc(-c2cccc([N+](=O)[O-])c2)ccc1O[C@H]1O[C@H](CO)[C@@H](O)[C@H](O)[C@]1(C)O [Example 18, (2R,3S,4S,5S,6R)-6-(hydroxymethyl)-3-methyl-2-[2-methyl-4-(3-nitrophenyl)phenoxy]tetrahydropyran-3,4,5-triol]	13 ± 3
Cc1cc(-c2cccc(C(=O)NC(CO)(CO)CO)c2)ccc1O[C@H]1O[C@H](CO)[C@@H](O)[C@H](O)[C@]1(C)O [Compound 60]	16 ± 0.5
COCCNC(=O)c1cccc(-c2ccc(O[C@H]3O[C@H](CO)[C@@H](O)[C@H](O)[C@]3(C)O)c(Cl)c2)c1 [Compound 53]	24 ± 6
Cc1cc(-c2cccc(C(=O)N(C)C)c2)ccc1O[C@H]1O[C@H](CO)[C@@H](O)[C@H](O)[C@]1(C)O [Compound 83]	19 ± 6
Cc1cc(-c2cccc(C(=O)NCC3CCN(C(=O)OC(C)(C)C)CC3)c2)ccc1O[C@H]1O[C@H](CO)[C@@H](O)[C@H](O)[C@]1(C)O [Compound 66]	11 ± 3
COc1cc(Cl)cc(-c2ccc(O[C@H]3O[C@H](CO)[C@@H](O)[C@H](O)[C@]3(C)O)c(C)c2)c1 [Compound 80]	55 ± 15
CNC(=O)c1ccc(-c2ccc(Cl)c(O[C@H]3O[C@H](CO)[C@@H](O)[C@H](O)[C@]3(C)O)c2)cc1 [Compound 45]	116 ± 34
